Data from patent US7582620B2, “Use of mannan from saccharomyces cerevisiae for the treatment of asthma” (The University of Tennessee Foundation, priority 2003, dated 2009).

Key:
[1] = tested on: human airway smooth muscle cells; assay: Mitogenic effect of growth factors in human airway smooth muscle cells (MTT); type: cell-based; details: for mitogenic response after repeated passages: human ASMC of the same batch, p10
Protocol: (§1) Cell counts and cytotoxicity are assessed by tetrazolium salt reduction (MTT) […] assay in parallel experiments. Millipore filtered MTT (5 mg/ml, Sigma Chemical Co., St Louis, Mo.) dissolved in phosphate buffered saline (PBS, pH 7.2) is added to the microtiter wells (10 μl/well, 20 μl/16 mm well) at the end of the experimental period. After incubating at 37° C. for 4 h, media is removed from the microtiter wells and acidified with 0.04 M HCl. 2-propane/isopropanol is added to the wells at 200 μl/well or 400 μl/16 mm well for human airway smooth muscle cells. The plates are left at room temperature for 30 min and optical density is obtained by an ELISA reader (EL340 Microplate, Bio-Tek instruments, Winooski, Vt.) at 570 nm wave length. The results obtained by MTT assay correlate well with the viable cell counts obtained by the Trypan blue method using hemocytometer (Sigma cell count instruction manual). Cytotoxicity also is measured by LDH assays (Sigma). Release of LDH greater than 5% is considered cytotoxic.
[…] Cells were stimulated with Hex A (50 nM), PDGF (0.1 nM), EGF (100 nM), bFGF (5 nM), thrombin (Thr, 1 unit/ml), FBS (5% vol/vol), or vehicle (V; PBS for Hex; 0.1% BSA in 4 mM HCl for PDGF; 0.1% BSA for EGF and bFGF; unstimulated for Thr and FBS). Viable cell numbers were assessed by MTT assays after 42 h stimulation. […] Experiments were repeated three times.

[2] = tested on: human airway smooth muscle cells; assay: Hex A-induced mitogenesis in human airway smooth muscle cells (MTT); type: cell-based; details: mannan 0.1-1 mg/ml 30 min before 50 nM Hex A, 42 h, human ASMC
Protocol: as §1
(§2) Human airway smooth muscle cells in 24-well plates were starved for 18h in medium containing 0.1% FBS. Mannan in concentrations ranging from 0.1-1 mg/ml (Sigma) was added to the cells 30 min prior to the addition of 50 nM Hex A, 0.1 nM PDGF or vehicle (PBS for Hex or 0.1% BSA in 4 mM HCl for PDGF). Viable cell numbers were assessed by MTT assays after 42h stimulation. […]

[3] = tested on: bovine airway smooth muscle cells; assay: Hex A-induced mitogenesis in bovine airway smooth muscle cells; type: cell-based; details: bovine ASMC
Protocol: Measurement of ^3H-thymidine incorporation as an assessment of the rate of DNA synthesis is performed as described previously (Lew et al., 1994) with a modification. After the cells reach confluency and contact-inhibited in microtiter wells (16 mm wells for human airway smooth muscle cells), the medium is replaced with medium M199 (Cellgro, Mediatech, Washington D.C.) or SmBM (for huASMC) containing 0.1% vol/vol fetal bovine serum (FBS, Hyclone Lab. Inc., Logan, Utah) 48 h before exposure to test substances. ^3H-thymidine (0.5 μCi/well or 2.5 μC/16 mm well, sp act 10 Ci/mmol, Amersham Corp., Arlington Heights, Ill.) is added to the cells 18 h after the addition of test substances and cells are harvested 18 h later. Radioactivity is quantified in a liquid scintillation counter (2000 CA; Packard Instrument Co., Downers Grove, Ill.). Experiments are performed in quadruplicate and repeated 3 times.
Mannan, a polymer of mannose, is a specific mannose receptor blocker.

[4] = tested on: TNFα secretion, Hex secretion in BAL fluids; assay: TNFα and Hex secretion in BAL fluids, OVA-sensitized murine model; type: in vivo, mouse; details: aerosolized mannan pretreatment, day 31
Protocol: The activities of Hex are determined as previously described (Lew et al., 1991). Samples (50 μl) are incubated with 100 μl of pre-warmed buffered substrate (5 mM p-nitrophenyl-2-deoxy-β-D-glucosaminide in 0.1 M citrate/phoshate buffer, pH 4.5) in 96-well microtirter plates for 1 h at 37° C. After incubation, the reactions are stopped by the addition of 100 μl of 0.5 M boric acid/NaOH buffer, pH 10.6. p-nitrophenol released by the hydrolytic activity is quantified spectrophotometrically by using a Biotek ELISA reader at 405 nm wave length. The Beer-Lambert Law and molecular extinction coefficient for p-nitrophenol (E=18,700) are applied to obtain units of specific activity expressed as micromoles of substrate cleaved/h/10^6 cells. Purified Hex (Sigma) is tested in each assay as a positive internal control.
Immediately after measuring MCh responsiveness, animals are anesthetized with Ketamine/Xylazine at 50/50 mg/kg and lungs are lavaged once via tracheal tube with 1 ml phosphate buffered saline (PBS, 37° C.). The broncho alveolar lavage_fluid is analyzed for Hex activity and differential cell count. Hex activity in broncho alveolar lavage_fluids is 262±33 μmoles/hr in immunized mice versus 92±12 in non-immunized mice.
Experiments were performed in quadruplicate and repeated four times.
Histopathology and immunohistology were performed on lungs and airways.

[5] = tested on: OVA-sensitized wild type FVB/N mice
Protocol: Enhanced pause (Penh) is measured using the software provided by the manufacturer.
Wild type FVB/N mice, ages 6-8 weeks, were immunized with ovalbumin (20 μg in Imject®-Alum, i.p.) on days 0, 14, 21 as described in Example 6. Non-immunized mice received i.p. injection of Alum only. Thirty minutes before each of the three ovalbumin challenges on days 28-30, the mice were pretreated via aerosol with 100 or 300 mg yeast mannan in 2 ml dH2O or 5 EU E. Coli endotoxin (Sigma Chemical Co., St Louis, Mo.) in 2 ml saline. Experiments were performed in quadruplicate and repeated four times.
Measurements of airway hyper-reactivity (AHR) and broncho alveolar lavage were performed on day 31.
Methacholine sensitivity and reactivity were measured by Penh parameter in spontaneously breathing animals on day 31 (FIG. 9).

[6] = tested on: OVA-sensitized and -challenged mice; assay: Histopathology of trachea and lung, OVA-sensitized murine model; type: in vivo, mouse
[7] = tested on: human airway smooth muscle cells; assay: PDGF-induced mitogenesis in human airway smooth muscle cells (MTT); type: cell-based; details: mannan 0.1-1 mg/ml 30 min before 0.1 nM PDGF, 42 h, human ASMC
Protocol: as §1, §2

[8] = tested on: bovine airway smooth muscle cells; type: cell-based
Protocol: as §1
Antisense human airway smooth muscle cell mannose receptor morpholino DNA oligonucleotides (M-oligos, 25 mer, 5 μM) delivered by the scrape method inhibited b hexosaminidase-induced mitogenesis in bovine ASMC by 37% compared to no inhibition by sense M-oligos (data not shown). […]

[9] = tested on: naive wild type FVB/N mice; assay: Airway hyperreactivity after aerosolized Hex in naive mice (methacholine challenge, Penh); type: in vivo, mouse; details: aerosolized human Hex A 1 mg every other day for 2 weeks, day 15
Protocol: Six week old FVB/N mice were treated with aerosolized human Hex A (1 mg) or vehicle (PBS) every other day for 2 weeks. On day 15, lung physiology was non-invasively assessed by methacholine (Mch) challenge and changes in pulmonary resistance (pause enhancement, Penh).

Question: With PDGF [reference compound] as the molecule, how does the “mitogenic response after repeated passages” value (“mitogenic response” below) [1] read?
Answer: Its value is “responded poorly”.

Question: With mannan as the molecule, how does the “inhibition of Hex A-induced mitogenesis” value [2] read?
Answer: The value was “inhibited by mannan in a concentration dependent manner”.

Question: What about the “inhibition of Hex A-induced mitogenesis” value [3] of the same molecule?
Answer: The value was “inhibited by mannan in a concentration dependent manner”.

Question: What about the “induction of Hex secretion in BAL fluids” value [4] of the same molecule?
Answer: Its value is “did not induce”.

Question: What about the “inhibition of TNFα secretion in BAL fluids” value [4] of the same molecule?
Answer: The value was 85-100%.

Question: What about the “effect on OVA-induced airway hyper-reactivity (Penh)” value ([5]; aerosol 30 min before each OVA challenge on days 28-30 (mannan 100 or 300 mg, endotoxin 5 EU), measured on day 31) of the same molecule?
Answer: Its value is “Blocks Airway Hyper-Reactivity”.

Question: And the “duration of the inhibitory effect” value ([5]; after the last dose of aerosolized yeast mannan)?
Answer: The value was “at least four”.

Question: And the “general condition of the treated mice” value ([5]; mouse, in vivo)?
Answer: Its value is “remained healthy and active”.

Question: What about the “trachea histology (H&E): trachealis muscle and epithelial layer” value ([6]; aerosolized mannan 300 mg) of the same molecule?
Answer: Its value is “Trachealis muscle has normal appearance and the epithelial layer is intact”.

Question: What about the “peribronchiolar cellular infiltration (H&E, lung)” value ([6]; mannan 300 mg pretreated mouse) of the same molecule?
Answer: Its value is “marked decrease in peribronchiolar cellular infiltration in 3 out of 4 bronchioles”.

Question: What about the “inhibitory effect on PDGF-induced mitogenesis” value [7] of the same molecule?
Answer: Its value is “lack of inhibitory effect”.

Question: How did the “concentration beyond which the delivery system was cytotoxic” value [8] turn out when Ethoxylated polyethylenimine [EPEI] was run?
Answer: The value was over 3 μl/ml.

Question: How did the “mitogenic response” value [1] turn out when thrombin [reference compound] was run?
Answer: Its value is “responded poorly”.

B1: Hex A: human placental b hexosaminidase A (Sigma), lysosomal hydrolase, mannosyl-rich ligand of ASM-MR (protein)
chain 1: TLEKNVLVVSVVTPGCNQLPTLESVENYTLTINDDQCLLLSETVWGALRGLETFSQLVWKSAEGTFFINKTEIEDFPRFPHRGLLLDTSRHYLPLSSILDTLDVMAYNKLNVFHWHLVDDPSFPYESFTFPELMRKGSYNPVTHIYTAQDVKEVIEYARLRGIRVLAEFDTPGHTLSWGPGIPGLLTPCYSGSEPSGTFGPVNPSLNNTYEFMSTFFLEVSSVFPDFYLHLGGDEVDFTCWKSNPEIQDFMRKKGFGEDFKQLESFYIQTLLDIVSSYGKGYVVWQEVFDNKVKIQPDTIIQVWREDIPVNYMKELELVTKAGFRALLSAPWYLNRISYGPDWKDFYIVEPLAFEGTPEQKALVIGGEACMWGEYVDNTNLVPRLWPRAGAVAERLWSNKLTSDLTFAYERLSHFRCELLRRGVQAQPLNVGFCEQEFEQT
chain 2: TQVQQLLVSITLQSECDAFPNISSDESYTLLVKEPVAVLKANRVWGALRGLETFSQLVYQDSYGTFTINESTIIDSPRFSHRGILIDTSRHYLPVKIILKTLDAMAFNKFNVLHWHIVDDQSFPYQSITFPELSNKGSYSLSHVYTPNDVRMVIEYARLRGIRVLPEFDTPGHTLSWGKGQKDLLTPCYSRQNKLDSFGPINPTLNTTYSFLTTFFKEISEVFPDQFIHLGGDEVEFKCWESNPKIQDFMRQKGFGTDFKKLESFYIQKVLDIIATINKGSIVWQEVFDDKAKLAPGTIVEVWKDSAYPEELSRVTASGFPVILSAPWYLDLISYGQDWRKYYKVEPLDFGGTQKQKQLFIGGEACLWGEYVDATNLTPRLWPRASAVGERLWSSKDVRDMDDAYDRLTRHRCRMVERGIAAQPLYAGYCNHENM
Question: For B1, which “airway hyperreactivity (Penh, methacholine challenge)” value [9] is on record?
Answer: Its value is “increased airway hyperreactivity”.

Question: What about the “mitogenic effect (viable cell numbers, MTT)” value ([1]; Hex A 50 nM, 42 h stimulation, serum-starved cells, passage #5) of the same molecule?
Answer: Its value is “comparable to that of PDGF and fetal bovine serum”.

Question: And the “mitogenic response” value [1]?
Answer: The value was “responded poorly”.
